Results published in patent publication US9365584B2, “Thieno [2,3-B] pyridinedione activators of AMPK and therapeutic uses thereof” (Poxel, priority 2009, dated 2016).

Test system: AMPK
Test: AMPK enzyme activity assay (Delfia technology, AMARA peptide substrate)
Format: biochemical
Settings: compound at 30 μM vs AMP at 200 μM
Experimental: The following biological test allows the determination of the efficacy of compounds of formula (1) onto AMPK protein.
AMPK enzyme activities were assayed by using a Delfia technology. AMPK enzyme activities were carried out in microtiter plates in the presence of a synthetic peptide substrate (AMARAASAAALARRR, the “AMARA” peptide) and activators in serial dilutions. Reactions were initiated by the addition of AMPK. Enzyme activity was assayed by using an anti-phosphoserine antibody to measure the quantity of phosphate incorporated into the AMARAA.
No: Number of the molecule
Activity: Ratio between the % of control (basal activity) of compound of formula (1) at 30 μM and the % of control (basal activity) of AMP (natural substrate) at 200 μM.

| Compound | Activity: Ratio between the % of control (basal activity) of compound of formula (1) at 30 μM and the % of control (basal activity) of AMP (natural substrate) at 200 μM |
| --- | --- |
| 2,5-difluoro-3-(2-naphthyl)-5-phenyl-7H-thieno[2,3-b]pyridine-4,6-dione [No 162] | C (C≧75%) |
| 2-chloro-5-(3-methoxyphenyl)-5-methyl-3-(p-tolyl)-7H-thieno[2,3-b]pyridine-4,6-dione [No 209] | A (0%<A<50%) |
| 2-chloro-5-fluoro-3-(5-fluoro-2-hydroxy-phenyl)-5-phenyl-7H-thieno[2,3-b]pyridine-4,6-dione [No 221] | C (C≧75%) |
| 2-chloro-5-methyl-3,5-bis(p-tolyl)-7H-thieno[2,3-b]pyridine-4,6-dione [No 154] | A (0%<A<50%) |
| 5-fluoro-3-(2-naphthyl)-5-phenyl-7H-thieno[2,3-b]pyridine-4,6-dione [No 161] | C (C≧75%) |
| CC1(c2ccccc2)C(=O)Nc2sc(Cl)c(-c3ccc4ccccc4c3O)c2C1=O (stereo not shown) [No 7, 2-chloro-3-(1-hydroxy-2-naphthyl)-5-methyl-5-phenyl-7H-thieno[2,3-b]pyridine-4,6-dione] | A (0%<A<50%) |
| CC1(c2ccccc2)C(=O)Nc2scc(-c3ccc4ccccc4c3O)c2C1=O (stereo not shown) [No 8, 3-(1-hydroxy-2-naphthyl)-5-methyl-5-phenyl-7H-thieno[2,3-b]pyridine-4,6-dione] | A (0%<A<50%) |
| O=C1Nc2scc(-c3ccccc3)c2C(=O)C1(c1ccccc1)c1ccccc1 [No 9, 3,5,5-triphenyl-7H-thieno[2,3-b]pyridine-4,6-dione] | A (0%<A<50%) |
| O=C1Nc2scc(-c3ccccc3)c2C(=O)C1(Cc1ccccc1)c1ccccc1 (stereo not shown) [No 10, 5-benzyl-3,5-diphenyl-7H-thieno[2,3-b]pyridine-4,6-dione] | A (0%<A<50%) |
| CCC1(c2ccccc2)C(=O)Nc2scc(-c3ccccc3)c2C1=O (stereo not shown) [No 11, 5-ethyl-3,5-diphenyl-7H-thieno[2,3-b]pyridine-4,6-dione] | A (0%<A<50%) |
| CCOc1c(F)ccc(-c2c(Cl)sc3c2C(=O)C(C)(c2ccccc2)C(=O)N3)c1OC (stereo not shown) [No 12, 2-chloro-3-(3-ethoxy-4-fluoro-2-methoxy-phenyl)-5-methyl-5-phenyl-7H-thieno[2,3-b]pyridine-4,6-dione] | A (0%<A<50%) |
| COc1c(-c2c(Cl)sc3c2C(=O)C(C)(c2ccccc2)C(=O)N3)ccc(F)c1F (stereo not shown) [No 13, 2-chloro-3-(3,4-difluoro-2-methoxy-phenyl)-5-methyl-5-phenyl-7H-thieno[2,3-b]pyridine-4,6-dione] | A (0%<A<50%) |
| CC1(c2ccccc2)C(=O)Nc2scc(-c3ccc(F)c(F)c3O)c2C1=O (stereo not shown) [No 14, 3-(3,4-difluoro-2-hydroxy-phenyl)-5-methyl-5-phenyl-7H-thieno[2,3-b]pyridine-4,6-dione] | A (0%<A<50%) |
| COc1ccc(C2(C)C(=O)Nc3sc(Cl)c(-c4ccc(F)cc4O)c3C2=O)cc1 (stereo not shown) [No 15, 2-chloro-3-(4-fluoro-2-hydroxy-phenyl)-5-(4-methoxy-phenyl)-5-methyl-7H-thieno[2,3-b]pyridine-4,6-dione] | A (0%<A<50%) |
| CCc1ccc(-c2csc3c2C(=O)C(C)(c2ccccc2)C(=O)N3)c(OC)c1 (stereo not shown) [No 16, 3-(4-ethyl-2-methoxy-phenyl)-5-methyl-5-phenyl-7H-thieno[2,3-b]pyridine-4,6-dione] | A (0%<A<50%) |
| CCOc1ccc(C2(C)C(=O)Nc3scc(-c4ccc(C)cc4F)c3C2=O)cc1 (stereo not shown) [No 17, 5-(4-ethoxyphenyl)-3-(2-fluoro-4-methyl-phenyl)-5-methyl-7H-thieno[2,3-b]pyridine-4,6-dione] | A (0%<A<50%) |

| Compound | Activity: Ratio between the % of control (basal activity) of compound of formula (1) at 30 μM and the % of control (basal activity) of AMP (natural substrate) at 200 μM |
| --- | --- |
| CC1(C)C(=O)Nc2scc(-c3ccccc3)c2C1=O [No 18, 5,5-dimethyl-3-phenyl-7H-thieno[2,3-b]pyridine-4,6-dione] | A (0%<A<50%) |
| CCOc1ccc(C2(C)C(=O)Nc3sc(C)c(-c4ccc(F)c(C)c4O)c3C2=O)cc1 (stereo not shown) [No 19, 5-(4-ethoxyphenyl)-3-(4-fluoro-2-hydroxy-3-methyl-phenyl)-2,5-dimethyl-7H-thieno[2,3-b]pyridine-4,6-dione] | A (0%<A<50%) |
| O=C1Nc2sc(Cl)c(-c3ccccc3)c2C(=O)C1(F)c1ccccc1 (stereo not shown) [No 20, 2-chloro-5-fluoro-3,5-diphenyl-7H-thieno[2,3-b]pyridine-4,6-dione] | C (C≧75%) |
| CCOc1ccc(C2(C)C(=O)Nc3scc(-c4ccc(Cl)cc4OC)c3C2=O)cc1 (stereo not shown) [No 21, 3-(4-chloro-2-methoxy-phenyl)-5-(4-ethoxyphenyl)-5-methyl-7H-thieno[2,3-b]pyridine-4,6-dione] | A (0%<A<50%) |
| CCOc1ccc(C2(C)C(=O)Nc3sc(Cl)c(-c4ccc(C)cc4F)c3C2=O)cc1 (stereo not shown) [No 22, 2-chloro-5-(4-ethoxyphenyl)-3-(2-fluoro-4-methyl-phenyl)-5-methyl-7H-thieno[2,3-b]pyridine-4,6-dione] | B (50%≦B<75%) |
| CCOc1ccc(C2(C)C(=O)Nc3scc(-c4ccc(C)c(F)c4O)c3C2=O)cc1 (stereo not shown) [No 23, 5-(4-ethoxyphenyl)-3-(3-fluoro-2-hydroxy-4-methyl-phenyl)-5-methyl-7H-thieno[2,3-b]pyridine-4,6-dione] | A (0%<A<50%) |
| Cc1ccc(-c2csc3c2C(=O)C(C)(c2ccc(O)cc2)C(=O)N3)c(O)c1F (stereo not shown) [No 24, 3-(3-fluoro-2-hydroxy-4-methyl-phenyl)-5-(4-hydroxy-phenyl)-5-methyl-7H-thieno[2,3-b]pyridine-4,6-dione] | A (0%<A<50%) |
| O=C1Nc2scc(-c3ccc(F)cc3O)c2C(=O)C1(F)c1ccccc1 (stereo not shown) [No 25, 5-fluoro-3-(4-fluoro-2-hydroxy-phenyl)-5-phenyl-7H-thieno[2,3-b]pyridine-4,6-dione] | C (C≧75%) |
| CC1(c2ccccc2)C(=O)Nc2sc(Cl)c(-c3ccc(F)cc3)c2C1=O (stereo not shown) [No 26, 2-chloro-3-(4-fluorophenyl)-5-methyl-5-phenyl-7H-thieno[2,3-b]pyridine-4,6-dione] | A (0%<A<50%) |
| CC1(c2cccc(F)c2)C(=O)Nc2sc(Cl)c(-c3ccccc3)c2C1=O (stereo not shown) [No 27, 2-chloro-5-(3-fluorophenyl)-5-methyl-3-phenyl-7H-thieno[2,3-b]pyridine-4,6-dione] | A (0%<A<50%) |
| CC1(c2ccccc2F)C(=O)Nc2sc(Cl)c(-c3ccccc3)c2C1=O (stereo not shown) [No 28, 2-chloro-5-(2-fluorophenyl)-5-methyl-3-phenyl-7H-thieno[2,3-b]pyridine-4,6-dione] | A (0%<A<50%) |
| CC1(c2ccccc2)C(=O)Nc2sc(Cl)c(-c3cccc(F)c3)c2C1=O (stereo not shown) [No 29, 2-chloro-3-(3-fluorophenyl)-5-methyl-5-phenyl-7H-thieno[2,3-b]pyridine-4,6-dione] | C (C≧75%) |
| CC1(c2ccccc2)C(=O)Nc2sc(Cl)c(-c3ccccc3F)c2C1=O (stereo not shown) [No 30, 2-chloro-3-(2-fluorophenyl)-5-methyl-5-phenyl-7H-thieno[2,3-b]pyridine-4,6-dione] | A (0%<A<50%) |
| Cc1ccc(C2(C)C(=O)Nc3sc(Cl)c(-c4ccccc4)c3C2=O)cc1 (stereo not shown) [No 31, 2-chloro-5-methyl-3-phenyl-5-(p-tolyl)-7H-thieno[2,3-b]pyridine-4,6-dione] | A (0%<A<50%) |
| CC1(c2ccc(F)cc2)C(=O)Nc2sc(Cl)c(-c3ccccc3)c2C1=O (stereo not shown) [No 32, 2-chloro-5-(4-fluorophenyl)-5-methyl-3-phenyl-7H-thieno[2,3-b]pyridine-4,6-dione] | A (0%<A<50%) |
